Source: ChEMBL document CHEMBL1157539, “Thousands of chemical starting points for antimalarial lead identification” (Nature, 2010)

Tested on: Plasmodium falciparum
Test: GSK_TCMDC: Inhibition of Plasmodium falciparum 3D7 in whole erythrocytes, using parasite LDH activity as an index of growth.
Assay type: functional, organism-based

Row | SMILES | XC50 (Plasmodium falciparum, 3D7) [nM] | XC50 [nM]
1 | Clc1ccc2c(N3CCN(CCN4CCN(c5ccnc6cc(Cl)ccc56)CC4)CC3)ccnc2c1 | 128 | 
2 | Cc1nc2ccc(Nc3nccc(-c4c(-c5cccc(NC(=O)c6c(F)cccc6F)c5)nn5ccccc45)n3)cc2nc1C | 1070 | 
3 | COc1ccc(CN(C)CCCc2ccc(NC(=O)c3cccc4c(O)c5ccccc5nc34)cc2)cc1OC | 1370 | 
4 | O=C(/C=C/c1ccc(Cl)c(Cl)c1)NCCCCCCN1CCCN(C(=O)Nc2cccc(Cl)c2)CC1 | 855 | 
5 | CC[C@H]1CN2CCc3cc(OC)c(OC)cc3[C@@H]2C[C@@H]1C[C@H]1NCCc2c1cc(OC)c(O)c2Cl | 144 | 
6 | COC(=O)c1ccc(CC(C)NCC(O)c2cccc(C(F)(F)F)c2)cc1 (centres undefined) | 1150 | 974
7 | Cc1[nH]c(C)c(-c2ccc(OCc3ccccc3C(F)(F)F)nc2)c(=O)c1Br | 16.4 | 
8 | Cc1[nH]c2cc(F)ccc2c1C1=CCN(CCCCC2(C)C(=O)Nc3ccccc32)CC1 (centres undefined) | 292 | 
9 | CN(C)c1nc2cc(-n3cnc4cc(-c5ccc(Cl)cc5)sc4c3=O)ccc2n1CCCN1CCCCC1 | 845 | 
10 | CC(C)(C)C(C)(C)Cc1ccc(O)c(CN2CCN(c3ccccc3)CC2)c1 | 601 | 
11 | CCCCOc1cc2c(cc1OCC)C(C=Cc1ccc(Cl)cc1Cl)=NCC2 | 403 | 
12 | CC1(C)NC(N)=NC(=N)N1OCCSc1ccccc1 | 3.2 | 
13 | Cc1nc(C)c(-c2ccc(Oc3ccc(OC(F)(F)F)cc3)cc2)c(OC(=O)N(CCNC(C)C)C(C)C)c1Br | 171 | 
14 | O=C(c1cccc(-c2ccc(-c3nc4cc(F)ccc4[nH]3)s2)c1)N1CCCCC1CN1CCC(O)C1 (centres undefined) | 715 | 
15 | O=C(Nc1cccc(F)c1)c1ccc(C(=O)NC2CCN(CC3CCCCC3)CC2)cc1 | 863 | 
16 | CCCCOc1cc(C)nc2ccc(NC(=O)COCC(=O)Nc3ccc4nc(C)cc(OCCCC)c4c3)cc12 | 1000 | 
17 | CCCCNCc1ccc(-c2nc(CN(Cc3ccc(Cl)c(Cl)c3)C(=O)CN(C)C)cs2)cc1 | 805 | 
18 | O=C(Cn1c(SCc2cccc(F)c2F)cc(=O)c2ccccc21)N(CCn1ccnc1)Cc1ccc(-c2ccc(C(F)(F)F)cc2)cc1 | 770 | 
19 | CC(CCCCOCCc1ccccc1)NCC(O)c1cc(Cl)c(N)c(Cl)c1 (centres undefined) | 788 | 
20 | c1ccc(CNCc2cccc(-c3ccc(-c4nc5ccccc5[nH]4)s3)c2)cc1 | 818 | 
21 | C(=N\Nc1nccc2sc(-c3ccccc3)cc12)/c1cccnc1 | 821 | 
22 | COc1cc(Cc2cnc(N)nc2N)cc(OCCCCC2SC(=O)NC2=O)c1Br (centres undefined) | 123 | 
23 | N#Cc1ccc(-c2ccc(C(=O)NCCCCN3CCC(c4ccc5c(c4OCC(N)=O)CCCC5)CC3)nc2)cc1 | 730 | 
24 | O=C(NCCN1Cc2ccccc2C1=O)c1ccc(Oc2ccc(C(=O)NCCN3Cc4ccccc4C3=O)cc2)cc1 | 361 | 

Row | SMILES | XC50 (Plasmodium falciparum, 3D7) [nM] | XC50 [nM]
25 | COc1ccc2c(=O)ccn(CCN3CCC(NCc4ccc5c(n4)NC(=O)CS5)CC3)c2c1 | 233 | 
26 | O=C(Nc1cccc(-c2ccc(-c3nc4cc(C(F)(F)F)ccc4[nH]3)cc2)c1)c1ccoc1 | 714 | 
27 | CN(C)CCCOc1ccc(CCNCc2cccc(Oc3ccc(Cl)cc3)c2)cc1 | 887 | 
28 | COc1ccccc1NC(=O)CSc1nc2cccnc2n1-c1ccccc1OC | 362 | 
29 | O=C(Nc1ccc(N2CCN(Cc3c[nH]c4cc(F)ccc34)CC2)cc1)c1ccccc1-c1ccc(C(F)(F)F)cc1 | 985 | 
30 | COc1ccc(CNCCCCCCNCCc2ccc(Cl)cc2)cc1OC | 1390 | 
31 | COc1ccccc1-c1csc(C(=O)NCC2CCN(Cc3ccc(C(C)C)cc3)C2)c1 (centres undefined) | 1350 | 
32 | N#Cc1ccc(N2CCN(Cc3cccc(-c4ccc(-c5nc6cc(C(F)(F)F)ccc6[nH]5)cc4)c3)CC2)nc1 | 702 | 
33 | COc1ccc(NC(=O)[C@H](Cc2ccccc2)Nc2cc(C)nc(NCCc3cccs3)n2)cc1 | 749 | 
34 | CCn1c(C=Cc2cc(Br)ccc2O)nc2ccccc2c1=O | 654 | 
35 | CS(=O)(=O)CCNc1cc(N2CCc3ncnc(Nc4ccc(OCc5cccc(F)c5)c(Cl)c4)c3C2)ncn1 | 873 | 
36 | C=CCN1C(=O)C(C(C)=O)=C(O)C1c1ccccc1 (centres undefined) | 53.8 | 
37 | NC1=NC(c2ccccc2)N(OCc2ccccc2)C(N)=N1 (centres undefined) | 43.1 | 
38 | CN1CCC(N(Cc2ccc(-c3ccc(Cl)cc3)cc2)C(=O)Cn2c(CCc3cccc(F)c3F)cc(=O)c3ccccc32)CC1 | 865 | 
39 | Cc1cc(-c2nc3ccc(C(=O)NCc4ccccc4)cc3n2C2CCN(C(=O)c3ccc(-c4ccccc4)cc3)CC2)ccn1 | 898 | 
40 | C[C@@]12C[C@@H](Nc3nc(NCCc4ccc(O)cc4)nc(N4CCNCC4)n3)C[C@@H](C1)c1cccc(Cl)c1O2 | 1320 | 
41 | O=C(Nc1ccccc1N1CCOCC1)c1ncoc1-c1ccccc1C(F)(F)F | 1060 | 
42 | O=C(NC1CCCCC1)N(Cc1cccc(-c2cccc(CNC3CCCC3)c2)c1)C1CCN(Cc2ccccc2)CC1 | 736 | 
43 | COc1ccc(Nc2ccnc3cc(-c4ccccn4)ccc23)cc1OC | 31.8 | 
44 | C=CCOC(=O)N1CCC(CNCc2cccc(-c3cccc(-c4nc5ccccc5[nH]4)c3)c2)C1 (centres undefined) | 340 | 
45 | COc1ccc(NC(=O)Nc2ccc(-c3ccc(-c4nc5ccccc5[nH]4)cc3)cc2)cc1 | 509 | 
46 | Cc1cc(CN2C(=O)C(c3ccccc3)(c3ccccc3)N=C2N)c(C(F)(F)F)o1 | 956 | 
47 | Cc1nc(C)c(-c2ccc(Oc3cc(Cl)cc(Cl)c3)cc2)c(O)c1Cl | 524 | 
48 | CS(=O)(=O)c1ccc(CNCc2cccc(-c3cccc(-c4nc5ccccc5[nH]4)c3)c2)cc1 | 590 | 
